Measurements as given in patent US11033556B2, “Bicyclic sulfonamides” (priority 2019, dated 2021).

These compounds were tested on genotype D HBV (assay: HBV-DNA Antiviral Assay Using HepG2.117 Cells). Details: Hepatitis B virus, HepG2.117, 96 h, intracellular HBV DNA by qPCR, day 4.
Type: cell-based
Method: The following assay procedure describes the HBV antiviral assay, using HepG2.117 cells, which carry a stably integrated genotype D HBV genome under the control of a Tet-off promoter, and intracellular HBV DNA quantification as endpoint. Cell viability is assessed in parallel by measuring the intracellular ATP content using ATPlite (Perkin Elmer).
On day 0, HepG2.117 cells (which are maintained in routine cell culture with doxycycline present in the medium at a final concentration of 1 μg/mL) were seeded in 96-well plates (white with clear bottom) at a density of 2.0×10^4 cells/well (0.1 mL/well) in medium without doxycycline to induce pgRNA transcription and subsequent formation of HBV particles. The cells were incubated at 37° C. and 5% CO2.
On day 1, medium was removed from each well, the test articles were diluted in culture medium without doxcycyline and 100 μL was added to cell culture wells (9 concentrations, 4-fold dilution). For each plate, 6 untreated (merely DMSO) wells were included. The final concentration of DMSO in the culture medium was 2%. Each plate was prepared in duplicate (one for HBV DNA extraction, one for ATPlite measurement). The cells were incubated at 37° C. and 5% CO2 for 3 days.
On day 4, cell viability was assessed using ATPlite and cell lysates were prepared for HBV DNA extraction and subsequent quantification by qPCR.
Medium was removed from each well and 100 μL of 0.33% NP-40 in H2O was added to each well. Plates were sealed, incubated at 4° C. for 5 mins, vortexed extensively and centrifuged briefly. Next, 35 μL of lysate was added to 65 μL QuickExtract DNA Extraction Solution (Epicentre) in a PCR plate for each well. PCR plate was incubated at 65° C. for 6 mins, 98° C. for 2 mins and finally cooled to 4° C. HBV DNA was then quantified by qPCR with HBV-specific primers and probes as specified in Table 4 using the Bio-Rad SSOAdvanced Universal Probes Supermix on a CFX96 machine (Bio-Rad). The PCR cycle program consisted of 95° C. for 3 mins, followed by 40 cycles at 95° C. for 10 sec and 60° C. for 30 sec.
A DNA standard was prepared by dilution of an IDT gBlock corresponding to the amplicon with concentrations ranging from 10^2 to 10^8 copies/input (i.e. per 4 μL) and used to generate a standard curve by plotting Cq values vs. HBV DNA standard concentration. The quantity of HBV DNA in each sample was determined by interpolating from the standard curve.
Cell viability was calculated as follows: % Cell viability=(luminescence value of test sample)/(average luminescence value of 2% DMSO control)×100%. HBV DNA inhibition was calculated as follows: 100−(HBV DNA copy number of test sample)/(average HBV DNA copy number of 2% DMSO control)×100%. No normalization to entecavir was required due to the excellent dynamic window of this assay. The CC50, EC50 and EC90 values were determined by dose-response curves fitted by GraphPad Prism using “log (agonist) vs. response—Variable slope”.

SMILES	EC50 [nM]
C=C[C@@H](C)[C@@H]1COc2c(cn(C)c2C(=O)Nc2ccc(F)c(C#N)c2)S(=O)(=O)N1 [Compound 27D]	< 1
C#C[C@@](C)(O)[C@H]1CCc2c(cn(C)c2C(=O)Nc2ccc(F)c(C#N)c2)S(=O)(=O)N1 [Compound 12B]	10 to 100
C=C[C@@](C)(O)[C@H]1CCc2c(cn(C)c2C(=O)Nc2ccc(F)c(C#N)c2)S(=O)(=O)N1 [Compound 11B]	1 to 10
C=CC[C@](C)(O)[C@H]1COc2c(cn(C)c2C(=O)Nc2ccc(F)c(C#N)c2)S(=O)(=O)N1 [Compound 40A]	1 to 10
C=C[C@]1(C)COc2c(cn(C)c2C(=O)Nc2ccc(F)c(C(F)(F)F)c2)S(=O)(=O)N1 [Compound 23B]	1 to 10
C=C[C@H](O)[C@@]1(C)COc2c(cn(C)c2C(=O)Nc2ccc(F)c(C#N)c2)S(=O)(=O)N1 [Compound 41C]	10 to 100
C=C[C@H](O)[C@]1(C)COc2c(cn(C)c2C(=O)Nc2ccc(F)c(C#N)c2)S(=O)(=O)N1 [Compound 41A]	1 to 10
C=C[C@@]1(C)COc2c(cn(C)c2C(=O)Nc2ccc(F)c(C(F)(F)F)c2)S(=O)(=O)N1 [Compound 23A]	1 to 10
C=CC1([C@H]2COc3c(cn(C)c3C(=O)Nc3ccc(F)c(C#N)c3)S(=O)(=O)N2)CCOCC1 [Compound 39A]	10 to 100
C=C[C@]1(CO)CCc2c(cn(C)c2C(=O)Nc2ccc(F)c(C(F)(F)F)c2)S(=O)(=O)N1 [Compound 9B]	10 to 100
C=CC[C@@H](O)[C@@H]1COc2c(cn(C)c2C(=O)Nc2ccc(F)c(C#N)c2)S(=O)(=O)N1 [Compound 25A]	10 to 100
C=C[C@@H](C)[C@H]1COc2c(cn(C)c2C(=O)Nc2ccc(F)c(C#N)c2)S(=O)(=O)N1 [Compound 27A]	10 to 100
C=C[C@](C)(O)[C@H]1CCc2c(cn(C)c2C(=O)Nc2ccc(F)c(C#N)c2)S(=O)(=O)N1 [Compound 11A]	1 to 10
C=C[C@@]1([C@H](C)O)COc2c(cn(C)c2C(=O)Nc2ccc(F)c(C#N)c2)S(=O)(=O)N1 [Compound 38A]	10 to 100
C=C[C@@]1(CO)CCc2c(cn(C)c2C(=O)Nc2ccc(F)c(C(F)(F)F)c2)S(=O)(=O)N1 [Compound 9A]	10 to 100
C#C[C@](C)(O)[C@H]1CCc2c(cn(C)c2C(=O)Nc2ccc(F)c(C#N)c2)S(=O)(=O)N1 [Compound 12A]	10 to 100
C#C[C@](C)(O)[C@H]1COc2c(cn(C)c2C(=O)Nc2ccc(F)c(C#N)c2)S(=O)(=O)N1 [Compound 35A]	1 to 10
C=C[C@@H](O)[C@H]1COc2c(cn(C)c2C(=O)Nc2ccc(F)c(C#N)c2)S(=O)(=O)N1 [Compound 14B]	1 to 10
C=CC[C@H](O)[C@@H]1COc2c(cn(C)c2C(=O)Nc2ccc(F)c(C#N)c2)S(=O)(=O)N1 [Compound 25B]	10 to 100
C=C[C@H](C)[C@@H]1COc2c(cn(C)c2C(=O)Nc2ccc(F)c(C#N)c2)S(=O)(=O)N1 [Compound 27B]	1 to 10
C=CC[C@@H](O)[C@@]1(C)COc2c(cn(C)c2C(=O)Nc2ccc(F)c(C#N)c2)S(=O)(=O)N1 [Compound 44B]	1 to 10
C=CC1([C@H]2COc3c(cn(C)c3C(=O)Nc3ccc(F)c(C#N)c3)S(=O)(=O)N2)CCS(=O)(=O)CC1 [Compound 43A]	10 to 100
C=CC[C@H](O)[C@]1(C)COc2c(cn(C)c2C(=O)Nc2ccc(F)c(C#N)c2)S(=O)(=O)N1 [Compound 44A]	10 to 100
C=C[C@H]1CCc2c(cn(C)c2C(=O)Nc2ccc(F)c(C#N)c2)S(=O)(=O)N1 [Compound 8]	1 to 10
C=C[C@](C)(O)[C@H]1COc2c(cn(C)c2C(=O)Nc2ccc(F)c(C(F)(F)F)c2)S(=O)(=O)N1 [Compound 29B]	1 to 10

SMILES	EC50 [nM]
Cn1cc2c(c1C(=O)Nc1ccc(F)c(C#N)c1)OC[C@H](CC=C(F)F)NS2(=O)=O [Compound 13]	1 to 10
C=CC(O)([C@H]1COc2c(cn(C)c2C(=O)Nc2ccc(F)c(C#N)c2)S(=O)(=O)N1)C(F)(F)F (some centres unmarked) [Compound 34]	< 1
C=C[C@@H](O)[C@@]1(C)COc2c(cn(C)c2C(=O)Nc2ccc(F)c(C#N)c2)S(=O)(=O)N1 [Compound 41B]	1 to 10
C=C[C@@](C)(O)[C@H]1COc2c(cn(C)c2C(=O)Nc2ccc(F)c(C#N)c2)S(=O)(=O)N1 [Compound 28A]	1 to 10
C=CC[C@@H](O)[C@H]1COc2c(cn(C)c2C(=O)Nc2ccc(F)c(C#N)c2)S(=O)(=O)N1 [Compound 17B]	1 to 10
C=C[C@](O)([C@@H]1COc2c(cn(C)c2C(=O)Nc2ccc(F)c(C(F)(F)F)c2)S(=O)(=O)N1)C(F)(F)F [Compound 26]	10 to 100
C=C[C@@]1(CO)COc2c(cn(C)c2C(=O)Nc2ccc(F)c(C#N)c2)S(=O)(=O)N1 [Compound 30A]	1 to 10
C=CC1([C@@H]2COc3c(cn(C)c3C(=O)Nc3ccc(F)c(C#N)c3)S(=O)(=O)N2)CCOCC1 [Compound 39B]	10 to 100
C=C[C@]1(CO)COc2c(cn(C)c2C(=O)Nc2ccc(F)c(C#N)c2)S(=O)(=O)N1 [Compound 30B]	10 to 100
C=C[C@@H](O)[C@]1(C)COc2c(cn(C)c2C(=O)Nc2ccc(F)c(C#N)c2)S(=O)(=O)N1 [Compound 41D]	10 to 100
C=C[C@@]1(CO)CCc2c(cn(C)c2C(=O)Nc2ccc(F)c(C#N)c2)S(=O)(=O)N1 [Compound 10A]	10 to 100
C=CC[C@H]1COc2c(cn(C)c2C(=O)Nc2ccc(F)c(C#N)c2)S(=O)(=O)N1 [Compound 47]	1 to 10
C=C[C@H]1COc2c(cn(C)c2C(=O)Nc2ccc(F)c(C(F)(F)F)c2)S(=O)(=O)N1 [Compound 24]	1 to 10
C=C[C@@](O)([C@H]1COc2c(cn(C)c2C(=O)Nc2ccc(F)c(C(F)(F)F)c2)S(=O)(=O)N1)C(F)(F)F [Compound 20]	1 to 10
C=CC[C@@](C)(O)[C@H]1COc2c(cn(C)c2C(=O)Nc2ccc(F)c(C#N)c2)S(=O)(=O)N1 [Compound 40B]	1 to 10
C#C[C@H](O)[C@]1(C)COc2c(cn(C)c2C(=O)Nc2ccc(F)c(C#N)c2)S(=O)(=O)N1 [Compound 42A]	1 to 10
C=CC(C)(C)[C@@H]1COc2c(cn(C)c2C(=O)Nc2ccc(F)c(C#N)c2)S(=O)(=O)N1 [Compound 45B]	1 to 10
C=CC(C)(C)[C@H]1COc2c(cn(C)c2C(=O)Nc2ccc(F)c(C#N)c2)S(=O)(=O)N1 [Compound 45A]	1 to 10
CC#C[C@H](O)[C@H]1COc2c(cn(C)c2C(=O)Nc2ccc(F)c(C#N)c2)S(=O)(=O)N1 [Compound 19A]	1 to 10
C=C[C@@](C)(O)[C@H]1COc2c(cn(C)c2C(=O)Nc2ccc(F)c(C(F)(F)F)c2)S(=O)(=O)N1 [Compound 29A]	10 to 100
C#C[C@](C)(O)[C@H]1COc2c(cn(C)c2C(=O)Nc2ccc(F)c(C(F)(F)F)c2)S(=O)(=O)N1 [Compound 36A]	10 to 100
C#C[C@H](O)[C@H]1COc2c(cn(C)c2C(=O)Nc2ccc(F)c(C#N)c2)S(=O)(=O)N1 [Compound 18]	1 to 10
CC#C[C@@H](O)[C@H]1COc2c(cn(C)c2C(=O)Nc2ccc(F)c(C#N)c2)S(=O)(=O)N1 [Compound 19B]	1 to 10
C=C[C@H](O)[C@H]1COc2c(cn(C)c2C(=O)Nc2ccc(F)c(C#N)c2)S(=O)(=O)N1 [Compound 14A]	1 to 10
C=C[C@@]1(CO)COc2c(cn(C)c2C(=O)Nc2ccc(F)c(C(F)(F)F)c2)S(=O)(=O)N1 [Compound 31A]	1 to 10
